Reference: US20040116652A1, “Method for producing and using novel human defensins as biologically active proteins for treating infections and other diseases” (priority 2000, published 2004)
Bridge positions count the residues as written; N and C are the ends. Ends that are not written are not given here.

Columns and labels:
Assay in all cases: radial diffusion assay, antimicrobial effect
Format in all cases: cell-based
Design in all cases: key: (+) means the formation of an inhibition halo; (−) means no formation of an inhibition halo
[1] = system: Escherichia coli
Description: (§1) In a radial diffusion assay, the activities stated in Table 1 could be measured for the peptides against different bacterial strains. In the Table, (+) means the formation of an inhibition halo, and (−) means no formation of an inhibition halo.

[2] = system: Saccharomyces cerevisiae
Description: as §1

[3] = system: Staphylococcus carnosus
Description: as §1

Sequence | formation of an inhibition halo [1] | formation of an inhibition halo [2] | formation of an inhibition halo [3]
NTICHMQQGICRLFFCHSGEKKRGICSDPWNRCCVSNTDEEGKEKPEMD (disulfide 4-33, 11-26, 16-34) [hBD10] | (+) | (+) | (+)
FIGLRRCLMGLGRCRDHCNVDEKEIQKCKMKKCCVGPKVVKLIK (disulfide 7-33, 14-28, 18-34) [hBD19] | (+) | (−) | (+)
TPGGTQRCWNLYGKCRYRCSKKERVYVYCINNKMCCVKPKYQPKERWWPF (disulfide 8-35, 15-29, 19-36) [hBD17] | (+) | (+) | (+)
